From US8389544B2, “Isoquinolone compounds as subtype-selective agonists for melatonin receptors MT1 and MT2” (The Hong Kong University of Science and Technology, priority 2007, dated 2013) come the findings set out here.

Assay [1] concerns the target T1, MT2 receptor (Homo sapiens, UniProt P49286).
T1 sequence (P49286 1-362): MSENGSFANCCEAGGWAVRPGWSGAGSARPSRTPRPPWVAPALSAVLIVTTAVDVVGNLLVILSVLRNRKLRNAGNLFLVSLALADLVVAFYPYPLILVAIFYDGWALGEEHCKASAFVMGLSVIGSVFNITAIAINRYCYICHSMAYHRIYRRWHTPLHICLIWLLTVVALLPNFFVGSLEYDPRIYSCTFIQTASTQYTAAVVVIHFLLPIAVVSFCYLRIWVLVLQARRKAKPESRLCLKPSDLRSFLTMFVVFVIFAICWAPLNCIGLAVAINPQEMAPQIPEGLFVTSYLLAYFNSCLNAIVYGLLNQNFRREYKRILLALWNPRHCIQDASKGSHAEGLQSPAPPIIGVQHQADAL
Nature of the assay: Competitive [3H]melatonin binding assay, MT2. As to conditions: displacement of 1 nM [3H]melatonin. The arrangement: expressed in transfected cells. The protocol: Competitive ligand binding assays were performed to examine the receptor binding characteristics of the novel isoquinolone compounds. The assay measures the ability of the novel isoquinolone compounds to bind and displace the radiolabelled endogenous ligand, [^3H]melatonin. Increasing concentrations of the novel compounds are added to displace the [^3H]melatonin-bound to MT1 or MT2 receptor-expressing cells.
4. Competitive Binding Assay
The ability of compounds to bind to MT1 and/or MT2 receptors is determined using radioligand binding assays. […] 48 hours following transfection, cells are harvested in binding buffer (50 mM Tris-HCl, 2 mM MgCl2, 1 mM EDTA, pH 7.4). 100,000 cells are incubated with 1 nM [^3H] melatonin (specific activity: 83 Ci/mmol; GE Healthcare) and appropriate concentrations (0.1 nM to 1 μM) of unlabelled ligands in a total volume of 100 μl in 96-well plates (PerkinElmer Life And Analytical Sciences, Inc., Boston, Mass.) for 2 hours at room temperature. Reactions are terminated by rapid filtration through a 96-well cell harvester onto 96-well GF/C filter mats. Filters are washed with 500 μl of ice-cold binding buffer, dried and sealed in a polyethylene bag with 3.5 ml of scintillation fluid and counted for tritium in a Microbeta Jet scintillation counter. […] Data are analyzed by nonlinear least-squares regression using GraphPad Prism 3.02.

Another assay addresses MT1 receptor (Homo sapiens, UniProt P48039). The assay is described as follows: FLIPR Ca2+ mobilization assay, MT1. The class given is cell-based. The arrangement: expressed in transfected cells; host or cells: COS-7 (monkey kidney fibroblast). Conditions: for % Response of 2-IMT: relative to 2-IMT response; for logEC50 ± SEM: NSR = No significant response. The protocol: 1. FLIPR Ca^2+ Mobilization Assay
This assay indicates the ability of the novel compounds to activate MT1 and MT2 receptors by measuring downstream events of the activated receptor, in this case intracellular calcium mobilization.
1. Intracellular Ca^2+ Mobilization Assay Using Fluorometric Imaging Plate Reader (FLIPR®)
An intracellular calcium mobilization assay was performed to screen the isoquinolone compounds against the two melatonin receptor subtypes, MT1 and MT2 on the fluorometric imaging plate reader (FLIPR®). In order to facilitate the screening process in a high-throughput manner, chimeric G proteins with the ability to couple to a range of GPCR as well as activate intracellular Ca^2+ were employed. The melatonin receptor subtype (either MT1 or MT2) was co-expressed with the G-protein chimeras in COS-7 (monkey kidney fibroblast) cells. During the assay, cells were exposed to the novel isoquinolone compounds and the corresponding change in fluorescence was measured. Both single point and dose-dependant assays were performed for each isoquinolone compound and based on the latter a dose response curve was generated and the corresponding EC50 for each receptor subtype determined.
Specifically, COS-7 cells were seeded at a density of 20,000 cells/well into 96-well plates designed for FLIPR assays, using Opti-MEM with 10% FCS at a volume of 100 μl/well. Transfection was carried out using Lipofectamine 2000® reagent. In each well, 0.2 μg of the GPCR and G protein cDNA were diluted with 25 μl of Opti-MEM and 0.2 μl of Lipofectamine 2000® was diluted with another 25 μl of Opti-MEM. They were added to appropriate wells after the two components were mixed for 20 min.
After 48 hours of incubation post-transfection, 50 μl of the transfection medium was removed from each well followed by the labelling of transfected cells with 100 μl of 2 μM Fluo-4 in calcium containing HBSS (Hank's balanced salt solution) with 20 mM HEPES (N-[2-hydroxyethyl]piperazine—N′-[2-ethanesulfonic acid]; pH 7.5) and 2.5 mM probenecid (anion exchanger inhibitor, freshly prepared) for 1 hour at 37° C. 70 μl of 3× drugs (isoquinolinone compounds encompassing the invention) were prepared and aliquoted into the corresponding wells in the V-well drug plate. Changes in fluorescence were detected in the FLIPR 96 with an excitation wavelength of 488 nm. The background fluorescence was adjusted to the range of 8,000 to 12,000 units by altering the laser power and exposure time (typically 0.4 W and 0.4 sec, respectively) for the FLIPR setup. 50 μl of each agonist solution was added to the corresponding wells and the fluorescent emission (between 510 and 560 nm) was monitored for 3 min. Results were expressed as change in fluorescent intensity units (FIU). Concentration-response curves were generated by determining the maximal change in FIU of each data set. Numerical analysis of the statistics and EC50 (median effective concentration) values were performed on GraphPad Prism version 3.03.
Then the intracellular Ca^2+ mobilization assays using the Fluorometric Imaging Plate Reader (FLIPR®) were performed as described above.
A general note: Calcium assays in cells follow changes in intracellular calcium, usually with a dye or a luminescent sensor.

Assay [2] has as its target T1, MT2 receptor. Nature of the assay: cAMP assay, MT2. The arrangement: expressed in transfected cells; host or cells: COS-7 (monkey kidney fibroblast). As to conditions: inhibition of forskolin-stimulated cAMP production; MT2-expressing cells. Type of assay: cell-based. In general terms: Changes in cAMP serve as a functional read-out for many G protein-coupled receptors.

The mark [3] stands for this setting: unit inferred, read-out: Binding Assay MT2 IC50.
The mark [4] stands for this setting: Table 1, MT1 in COS-7 cells with chimeric G protein, log value, negative, NSR = no significant response, read-out: Log(EC50) ± SEM (converted).
Where [5] appears, read: Table 1, MT1 in COS-7 cells with chimeric G protein, log value, negative, NSR = no significant response.
The mark [6] stands for this setting: Table 2, MT1, log value, negative.
Where [7] appears, read: HEK-293 cells, log value, negative, NSB = No significant binding.

The EC50 is the midpoint of the concentration-response curve.

Read-outs that look alike come from different tables or passages of the source.

MT1 receptor, sequence (P48039 whole entry): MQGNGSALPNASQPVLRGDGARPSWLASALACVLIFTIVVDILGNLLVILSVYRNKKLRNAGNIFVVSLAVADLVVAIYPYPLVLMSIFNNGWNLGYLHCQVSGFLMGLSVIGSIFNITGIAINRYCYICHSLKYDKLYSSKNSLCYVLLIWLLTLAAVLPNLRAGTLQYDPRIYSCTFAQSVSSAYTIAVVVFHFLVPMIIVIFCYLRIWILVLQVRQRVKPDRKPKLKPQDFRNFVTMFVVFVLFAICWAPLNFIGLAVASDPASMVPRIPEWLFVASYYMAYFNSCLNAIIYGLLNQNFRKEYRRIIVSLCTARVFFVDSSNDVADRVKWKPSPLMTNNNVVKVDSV

Take `COc1cccc(COc2cc3c(=O)n(C)ccc3cc2OC)c1` [IS521]: on MT2 receptor [1] (setting [3]), the IC50 was 145 nM. The “% Response of 2-IMT” value at MT1 receptor (Table 1, MT1) came to 31.8%. Further, the half-maximal effective concentration (EC50) on MT1 receptor (setting [4]) is 1860 nM; on MT1 receptor (Table 2, MT1, read-out: EC50) it was 1860 nM. Further, the “cAMP Assay MT2 % Inh” value on MT2 receptor [2] is on record as 63.2 ± 4.9%.

As to `COc1cccc(COc2cc3ccn(C)c(=O)c3cc2OC)c1` [IS044], the “% Response of 2-IMT” value at MT1 receptor (Table 1, MT1) came out at 54.5%. Further, the “Log(EC50) ± SEM” value at MT1 receptor (setting [5]) was −6.79 ± 0.17. The “logEC50 ± SEM” value on MT1 receptor (setting [6]) is listed as −6.79 ± 0.17. The EC50 on MT1 receptor (Table 2, MT1, read-out: EC50) turned out to be 161 nM. For the same compound, the “cAMP Assay MT2 % Inh” value at MT2 receptor [2] is reported as 62.5 ± 4.0%.

Turning to `COc1cc(COc2cc3c(=O)n(C)ccc3cc2OC)cc(OC)c1` [IS523], the “Binding Assay MT2 logIC50 ± SEM” value at MT2 receptor [1] (setting [7]) is reported as “NSB”. Moreover, on MT1 receptor (setting [5]), the “Log(EC50) ± SEM” value was “NSR”. Also, the “logEC50 ± SEM” value on MT1 receptor (setting [6]) was “NSR”. Besides, the “cAMP Assay MT2 % Inh” value on MT2 receptor [2] is recorded as 50.8 ± 9.1%.

As for `COc1cc2ccn(C)c(=O)c2cc1OCc1ccc(C(C)(C)C)cc1` [IS526], the “Binding Assay MT2 logIC50 ± SEM” value at MT2 receptor [1] (setting [7]) is “NSB”. The “% Response of 2-IMT” value at MT1 receptor (Table 1, MT1) is given as 46.2%. Besides, the “Log(EC50) ± SEM” value at MT1 receptor (setting [5]) is given as −5.35 ± 1.32. Also, the “logEC50 ± SEM” value on MT1 receptor (setting [6]) was −5.35 ± 1.32. Also, the EC50 on MT1 receptor (Table 2, MT1, read-out: EC50) came to 4490 nM. For the same compound, on MT2 receptor [2], the “cAMP Assay MT2 % Inh” value was −63.9 ± 59.2%.

With `COc1cccc(COc2c(OC)ccc3c(=O)n(C)ccc23)c1` [IS527], the IC50 on MT2 receptor [1] (HEK-293 cells, log value, negative, NSB = No significant binding, read-out: Binding Assay MT2 logIC50 ± SEM (converted)) is 117 nM; on MT2 receptor [1] (setting [3]), 108 nM. Further, the “Log(EC50) ± SEM” value on MT1 receptor (setting [5]) is on record as “NSR”. On MT1 receptor (setting [6]), the “logEC50 ± SEM” value is “NSR”. For the same compound, the “cAMP Assay MT2 % Inh” value on MT2 receptor [2] stood at 51.4 ± 12.1%.

Turning to `COc1ccc2c(=O)n(C)ccc2c1OCc1ccc(C)cc1` [IS529], the “Binding Assay MT2 logIC50 ± SEM” value at MT2 receptor [1] (setting [7]) is “NSB”. At MT1 receptor (setting [5]), the “Log(EC50) ± SEM” value is listed as “NSR”. At MT1 receptor (setting [6]), the “logEC50 ± SEM” value is given as “NSR”. The “cAMP Assay MT2 % Inh” value at MT2 receptor [2] came out at 37.7 ± 11.9%.

In the case of `Cn1ccc2cc(OC(=O)c3ccccc3)c(OC(=O)c3ccccc3)cc2c1=O` [IS039], the “Binding Assay MT2 logIC50 ± SEM” value at MT2 receptor [1] (setting [7]) is given as “NSB”. Besides, on MT1 receptor (setting [5]), the “Log(EC50) ± SEM” value was “NSR”. Also, the “logEC50 ± SEM” value on MT1 receptor (setting [6]) is listed as “NSR”. Further, the “cAMP Assay MT2 % Inh” value at MT2 receptor [2] is 4.2 ± 6.8%.

Turning to `COc1cc(COc2cc3ccn(C)c(=O)c3cc2OC)cc(OC)c1` [IS042], the “Binding Assay MT2 logIC50 ± SEM” value on MT2 receptor [1] (setting [7]) is recorded as “NSB”. On MT1 receptor (Table 1, MT1), the “% Response of 2-IMT” value was 49.4%. In addition, the EC50 on MT1 receptor (setting [4]) is 12 nM; at MT1 receptor (Table 2, MT1, read-out: EC50), 12 nM. Also, the “cAMP Assay MT2 % Inh” value on MT2 receptor [2] is recorded as 58.7 ± 5.8%.

In the case of `COc1cc(COc2c(OC)ccc3c(=O)n(C)ccc23)cc(OC)c1` [IS528], the “Binding Assay MT2 logIC50 ± SEM” value at MT2 receptor [1] (setting [7]) is on record as “NSB”. Moreover, the “% Response of 2-IMT” value on MT1 receptor (Table 1, MT1) was found to be 42.1%. The “Log(EC50) ± SEM” value on MT1 receptor (setting [5]) is −5.15 ± 0.51. At MT1 receptor (setting [6]), the “logEC50 ± SEM” value is on record as −5.15 ± 0.51. Besides, the EC50 on MT1 receptor (Table 2, MT1, read-out: EC50) was 7140 nM. In addition, at MT2 receptor [2], the “cAMP Assay MT2 % Inh” value is given as 49.4 ± 13.2%.
